Data published in patent publication US20200268762A1, “7-SUBSTITUTED SULFONIMIDOYLPURINONE COMPOUNDS AND DERIVATIVES FOR THE TREATMENT AND PROPHYLAXIS OF LIVER CANCER” (Hoffmann-La Roche Inc., priority 2019, published 2020).
≈ marks a conversion by molar mass, not a printed value. Where two headings read alike, the source gives them in different places.

Assays:
[1] = system: cell lines originating from hepatocellular carcinoma and cholangiocarcinoma; test: Direct treatment of tumor cell lines, cell counts by nuclei imaging; assay type: cell-based; conditions: 27 μM down to 270 pM, 72, 120 and 148 hours, relative to DMSO control
Procedure: Cell lines derived from hepatocellular carcinoma and cholangiocarcinoma (EGI1 and OZ) were maintained and tested in the following media: Huh7 and EGI1 were cultured in DMEM 4.5 g/L glucose (Gibco, Cat #31966-021), 10% FCS (GIBCO, Cat #10500-064 Lot 07G3690K), 2 mM L-glutamine (Thermo Fischer, Cat #25030081), 1 mM sodium pyruvate (GIBCO Cat #11360-039). Hep3B and HepG2 were cultivated in Eagles MEM+Earle's BSS (PAN, Cat # P04-08510), 10% FCS, 2 mM L-glutamine, 0.1 mM NEAA (PAN Cat # P08-32100) and 1 mM sodium pyruvate. JHH1, JHH5, JHH6 and OZ were cultivated in Williams'E (PAN Cat # P04-29050), 10% FCS and 2 mM L-glutamine. JHH2 was cultivated using Williams'E, 10% FCS and 2 mM L-glutamine. HLE was cultivated in DMEM 4.5 g/L glucose, 10% FCS and 2 mM L-glutamine. HLF was cultivated in DMEM 4.5 g/L glucose, 5% FCS, 0.1 mM NEAA and 2 mM L-glutamine. JHH4 was cultivated in Eagles MEM+Earle's BSS, 10% FCS and 2 mM L-glutamine. SkHep1 was cultivated in Eagles MEM+Earle's BSS, 10% FCS, 2 mM L-glutamine, 0.1 mM NEAA and 1 mM sodium pyruvate. SNU449 was cultivated using RPMI 1640 (PAN Cat # P04-18047) 10% FCS and 2 mM L-glutamine. […]
Tumor cell counts were determined using Perkin Elmer Operetta Imaging System and Harmony Software by counting nuclei stained for 20 minutes in full media using Hoechst33342 dye (2 μg/ml, Sigma Cat # B2261). […]

[2] = LYSA solubility study; assay type: physicochemical; conditions: for LYSA of Active Forms: 0.05 M phosphate buffer pH 6.5; for solubility thermodynamic: 0.05 M phosphate buffer, pH 6.5, aqueous buffer, thermodynamic from solid
Procedure: LYSA study is used to determine the aqueous solubility of tested compounds. Samples were prepared in duplicate from 10 mM DMSO stock solution. After evaporation of DMSO with a centrifugal vacuum evaporator, the compounds were dissolved in 0.05 M phosphate buffer (pH 6.5), stirred for one hour and shaken for two hours. After one night, the solutions were filtered using a microtiter filter plate. Then the filtrate and its 1/10 dilution were analyzed by HPLC-UV. […] The results were in μg/mL. In case the percentage of sample measured in solution after evaporation divided by the calculated maximum of sample amount was bigger than 80%, the solubility was reported as bigger than this value.

[3] = target: T1, human TLR7 (Homo sapiens, UniProt Q9NYK1); test: HEK293-Blue-hTLR-7 cells assay (SEAP reporter); assay type: cell-based; conditions: for EC50: SEAP reporter, 20 hrs
T1 sequence (Q9NYK1 27-1049): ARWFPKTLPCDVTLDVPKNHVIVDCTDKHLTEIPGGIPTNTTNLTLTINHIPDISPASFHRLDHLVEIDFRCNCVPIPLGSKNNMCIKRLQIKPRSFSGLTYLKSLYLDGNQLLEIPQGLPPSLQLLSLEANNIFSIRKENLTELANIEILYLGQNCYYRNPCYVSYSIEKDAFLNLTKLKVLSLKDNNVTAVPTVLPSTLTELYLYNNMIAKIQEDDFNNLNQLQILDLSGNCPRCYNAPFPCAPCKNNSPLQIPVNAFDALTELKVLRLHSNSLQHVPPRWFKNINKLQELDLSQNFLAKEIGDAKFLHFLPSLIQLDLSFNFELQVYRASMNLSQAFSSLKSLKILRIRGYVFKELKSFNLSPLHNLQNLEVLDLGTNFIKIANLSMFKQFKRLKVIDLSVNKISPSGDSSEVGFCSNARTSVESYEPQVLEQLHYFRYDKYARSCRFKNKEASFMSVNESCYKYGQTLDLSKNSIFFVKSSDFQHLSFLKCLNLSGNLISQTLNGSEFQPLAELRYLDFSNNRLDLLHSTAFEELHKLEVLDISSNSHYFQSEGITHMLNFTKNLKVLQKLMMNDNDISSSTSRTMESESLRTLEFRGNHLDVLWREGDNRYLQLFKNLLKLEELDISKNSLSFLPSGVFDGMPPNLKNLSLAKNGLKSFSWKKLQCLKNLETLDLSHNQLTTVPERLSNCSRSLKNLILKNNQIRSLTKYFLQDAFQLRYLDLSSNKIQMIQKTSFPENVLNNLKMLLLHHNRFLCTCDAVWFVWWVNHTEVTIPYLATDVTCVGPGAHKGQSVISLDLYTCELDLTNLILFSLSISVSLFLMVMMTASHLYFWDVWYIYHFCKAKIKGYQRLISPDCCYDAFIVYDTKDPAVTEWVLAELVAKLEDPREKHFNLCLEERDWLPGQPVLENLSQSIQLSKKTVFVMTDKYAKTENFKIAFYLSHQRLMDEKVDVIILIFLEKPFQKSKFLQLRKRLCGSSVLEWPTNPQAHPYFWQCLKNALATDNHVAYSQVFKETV
Source text: HEK293-Blue-hTLR-7 cells assay: A stable HEK293-Blue-hTLR-7 cell line was purchased from InvivoGen (Cat. #: hkb-htlr7, San Diego, Calif., USA). These cells were designed for studying the stimulation of human TLR7 by monitoring the activation of NF-κB. A SEAP (secreted embryonic alkaline phosphatase) reporter gene was placed under the control of the IFN-β minimal promoter fused to five NF-κB and AP-1-binding sites. The SEAP was induced by activating NF-κB and AP-1 via stimulating HEK-Blue hTLR7 cells with TLR7 ligands. Therefore the reporter expression was regulated by the NF-κB promoter upon stimulation of human TLR7 for 20 hrs. The cell culture supernatant SEAP reporter activity was determined using QUANTI-Blue™ kit (Cat. #: rep-qbl, Invivogen, San Diego, Ca, USA) at a wavelength of 640 nm, a detection medium that turns purple or blue in the presence of alkaline phosphatase. […] Then 20 μL of the supernatant from each well was incubated with 180 μL Quanti-blue substrate solution at 37° C. for 2 hrs and the absorbance was read at 620-655 nm using a spectrophotometer. The signalling pathway that TLR7 activation leads to downstream NF-κB activation has been widely accepted, and therefore similar reporter assay was also widely used for evaluating TLR7 agonist (Tsuneyasu Kaisho and Takashi Tanaka, Trends in Immunology, Volume 29, Issue 7, July 2008, […]; Hiroaki Hemmi et al, Nature Immunology 3, 196-200 (2002)). The Compounds and Examples of the present invention were tested in HEK293-hTLR-7 assay for their TLR7 agonism activity as described herein and results are listed in Table 1. […] The calculated ratio of EC50(prodrug)/EC50(active form) were within the range from 32 to about 7600.

[4] = system: immune cell infiltrate in iAST tumor; test: Leukocyte infiltrate of iAST tumors by flow cytometry; assay type: in vivo, mouse; conditions: day 12 after treatment start
Procedure: Tumors from iAST mice were treated as described in FIG. 1. […] For flow cytometry, tumors were excised and single cell suspensions obtained by mechanical processing and enzymatic digestion (DNAse 0.01%, Collagenase IV 1 mg/ml). Staining procedures started with Fc receptor blocking using 2.4G2 antibody clone (1:200 dilution, BD Bioscience), and the following antibodies (clones) were used to analyzed leukocyte infiltrate: CD45-FITC (30-F11, BioLegend) and CD11b-BUV737 (M1/70, BD Bioscience). Samples were acquired using a LSR Fortessa machine (BD Bioscience) and analyzed by FlowJo version 10 (Treestar).

[5] = system: iAST mouse model of hepatocellular carcinoma; test: iAST mouse model of hepatocellular carcinoma, tumor burden; conditions: iAST mice, Sorafenib 90 mg/kg daily
Procedure: Per group n=10 were analyzed by One-way ANOVA and Tukey correction shown as individual dots with means±SEM using GraphPad Prism software version 6.

[6] = corresponding active form, read-out: HEK293-hTLR-7 EC50 (Active form)

SMILES: CC[S@@](=N)(=O)c1nc(N)c2[nH]c(=O)n(Cc3ccc(Cl)cc3)c2n1 (single isomer, unassigned) [Compound 41c-B, 6-amino-9-[(4-chlorophenyl)methyl]-2-(ethylsulfonimidoyl)-7H-purin-8-one]
- tumor cell proliferation upon direct treatment [1]: None of the cell lines tested showed a significant increase in proliferation
- tumor cell proliferation upon direct treatment ([1]; listed as compound 41c-B): does not induce enhanced tumor cell proliferation

SMILES: CCCS(=N)(=O)c1nc(N)c2[nH]c(=O)n(Cc3ccc(C)cc3)c2n1 (single isomer, unassigned) [Compound 36g-B, 6-Amino-2-(propylsulfonimidoyl)-9-(p-tolylmethyl)-7H-purin-8-one]
- LYSA of Active Forms [2]: 11 µg/mL

SMILES: CC[S@@](=N)(=O)c1nc(N)c2[nH]c(=O)n(Cc3ccc(Br)cc3)c2n1 (single isomer, unassigned) [Compound 47e-B, 6-Amino-9-[(4-bromophenyl)methyl]-2-(ethylsulfonimidoyl)-7H-purin-8-one]
- EC50 [3, 6]: 25 nM

SMILES: CCCS(=N)(=O)c1nc(N)c2[nH]c(=O)n(Cc3ccccc3)c2n1 (single isomer, unassigned) [Compound 1e-A, 6-amino-9-benzyl-2-(propylsulfonimidoyl)-7H-purin-8-one]
- LYSA of Active Forms [2]: 56 µg/mL

SMILES: CC[S@@](=N)(=O)c1nc(N)c2[nH]c(=O)n(Cc3ccc(Br)cc3)c2n1 (single isomer, unassigned) [Compound 47e-A, 6-Amino-9-[(4-bromophenyl)methyl]-2-(ethylsulfonimidoyl)-7H-purin-8-one]
- EC50 [3, 6]: 21 nM

SMILES: CCC[S@](=N)(=O)c1nc(N)c2c(n1)n(Cc1ccc(C)cc1)c(=O)n2C(=O)N(C)CCOC [Example 38-A, 6-Amino-N-(2-methoxyethyl)-N-methyl-8-oxo-2-[S(S)-propylsulfonimidoyl]-9-(p-tolylmethyl)purine-7-carboxamide]
- Ratio (EC50(prodrug)/EC50(active form)) [3]: 1378.9

SMILES: CCCS(=N)(=O)c1nc(N)c2[nH]c(=O)n(Cc3ccc(C)cc3)c2n1 (single isomer, unassigned) [Compound 36g-A, 6-Amino-2-(propylsulfonimidoyl)-9-(p-tolylmethyl)-7H-purin-8-one]
- solubility thermodynamic ([2]; read-out: LYSA of Active Forms): 6 µg/mL (≈ 16.6 µM)

SMILES: CNC(=O)c1cc(Oc2ccc(NC(=O)Nc3ccc(Cl)c(C(F)(F)F)c3)cc2)ccn1 [Sorafenib, 4-{4-[3-(4-Chlor-3-trifluormethylphenyl)ureido]phenoxy}pyridin-2-carbonsäuremethylamid]
- overall lymphoid and myeloid composition of the tumors [4]: changes were clearly driven by Sorafenib
- efficacy in monotherapy (total liver and tumor weights) [5]: highly effective
- Examination of the liver for superficial tumor nodules (tumor nodule free) ([5]; day 12 after treatment start, 41-A 10 mg/kg once a week oral): 0/10 tumor nodule free

SMILES: CCCN(C)C(=O)n1c(=O)n(Cc2ccc(Br)cc2)c2nc([S@](=N)(=O)CC)nc(N)c21 (single isomer, unassigned) [Example 47-A]
- EC50 ([3]; prodrug, read-out: HEK293-hTLR-7 EC50 (Prodrug)): 10900 nM
- solubility thermodynamic ([2]; read-out: LYSA of Prodrugs): 154 µg/mL (≈ 302 µM)

SMILES: CCCS(=N)(=O)c1nc(N)c2[nH]c(=O)n(Cc3ccccc3)c2n1 (single isomer, unassigned) [Compound 1e-B, 6-amino-9-benzyl-2-(propylsulfonimidoyl)-7H-purin-8-one]
- solubility thermodynamic ([2]; read-out: LYSA of Active Forms): 50 µg/mL (≈ 144 µM)
